Laboratory results reported in ChEMBL document CHEMBL1201861, “Genomics of Drug Sensitity in Cancer screening data, Wellcome Trust Sanger Institute”.
pIC50: −log10 of the molar value.

Legend:
Test in all cases: cells
COLO-800 = format: functional, cell-based, Homo sapiens; details: Homo sapiens, COLO-800
Description: SANGER: Inhibition of human COLO-800 cell growth in a cell viability assay.

COLO-829 = format: functional, cell-based, Homo sapiens; details: Homo sapiens, COLO-829
Description: SANGER: Inhibition of human COLO-829 cell growth in a cell viability assay.

Ca9-22 = format: functional, cell-based, Homo sapiens; details: Homo sapiens, Ca9-22
Description: SANGER: Inhibition of human Ca9-22 cell growth in a cell viability assay.

Capan-2 = format: functional, cell-based, Homo sapiens; details: Homo sapiens, Capan-2
DJM-1 = format: functional, cell-based, Homo sapiens; details: Homo sapiens, DJM-1
Description: SANGER: Inhibition of human DJM-1 cell growth in a cell viability assay.

DU-4475 = format: functional, cell-based; details: Homo sapiens
Description: SANGER: Inhibition of human DU-4475 cell growth in a cell viability assay.

EFM-19 = format: functional, cell-based, Homo sapiens; details: Homo sapiens, EFM-19
Description: SANGER: Inhibition of human EFM-19 cell growth in a cell viability assay.

ES6 = format: functional, cell-based, Homo sapiens; details: Homo sapiens, ES6
Description: SANGER: Inhibition of human ES6 cell growth in a cell viability assay.

GAMG = format: functional, cell-based, Homo sapiens; details: Homo sapiens, GAMG
Description: SANGER: Inhibition of human GAMG cell growth in a cell viability assay.

HCC1419 = format: functional, cell-based, Homo sapiens; details: Homo sapiens, HCC1419
Description: SANGER: Inhibition of human HCC1419 cell growth in a cell viability assay.

HCE-T = format: functional, cell-based, Homo sapiens; details: Homo sapiens, HCE-T
Description: SANGER: Inhibition of human HCE-T cell growth in a cell viability assay.

KURAMOCHI = format: functional, cell-based; details: Homo sapiens
Description: SANGER: Inhibition of human KURAMOCHI cell growth in a cell viability assay.

KYSE-520 cell line = format: functional, cell-based, Homo sapiens; details: Homo sapiens, KYSE-520
Description: SANGER: Inhibition of human KYSE-520 cell growth in a cell viability assay.

LB2241-RCC = format: functional, cell-based, Homo sapiens; details: Homo sapiens, LB2241-RCC
Description: SANGER: Inhibition of human LB2241-RCC cell growth in a cell viability assay.

LN-405 = format: functional, cell-based, Homo sapiens; details: Homo sapiens, LN-405
Description: SANGER: Inhibition of human LN-405 cell growth in a cell viability assay.

LNCaP-Clone-FGC = format: functional, cell-based, Homo sapiens; details: Homo sapiens, LNCaP-Clone-FGC
Description: SANGER: Inhibition of human LNCaP-Clone-FGC cell growth in a cell viability assay.

LS-123 = format: functional, cell-based, Homo sapiens; details: Homo sapiens, LS-123
M059J = format: functional, cell-based, Homo sapiens; details: Homo sapiens, M059J
Description: SANGER: Inhibition of human M059J cell growth in a cell viability assay.

MDA-MB-157 = format: functional, cell-based, Homo sapiens; details: Homo sapiens, MDA-MB-157
Description: SANGER: Inhibition of human MDA-MB-157 cell growth in a cell viability assay.

MIA PaCa-2 = format: functional, cell-based, Homo sapiens; details: Homo sapiens, MIA PaCa-2
Description: SANGER: Inhibition of human MIA-PaCa-2 cell growth in a cell viability assay.

MeWo = format: functional, cell-based, Homo sapiens; details: Homo sapiens, MeWo
Description: SANGER: Inhibition of human Mewo cell growth in a cell viability assay.

NCI-H1437 = format: functional, cell-based, Homo sapiens; details: Homo sapiens, NCI-H1437
Description: SANGER: Inhibition of human NCI-H1437 cell growth in a cell viability assay.

NCI-H1793 = format: functional, cell-based, Homo sapiens; details: Homo sapiens, NCI-H1793
Description: SANGER: Inhibition of human NCI-H1793 cell growth in a cell viability assay.

NCI-H226 = format: functional, cell-based, Homo sapiens; details: Homo sapiens, NCI-H226
Description: SANGER: Inhibition of human NCI-H226 cell growth in a cell viability assay.

NCI-H2452 = format: functional, cell-based, Homo sapiens; details: Homo sapiens, NCI-H2452
Description: SANGER: Inhibition of human NCI-H2452 cell growth in a cell viability assay.

NCI-H510A = format: functional, cell-based; details: Homo sapiens
OCUB-M = format: functional, cell-based, Homo sapiens; details: Homo sapiens, OCUB-M
Description: SANGER: Inhibition of human OCUB-M cell growth in a cell viability assay.

OE33 = format: functional, cell-based, Homo sapiens; details: Homo sapiens, OE33
Description: SANGER: Inhibition of human OE33 cell growth in a cell viability assay.

OS-RC-2 = format: functional, cell-based, Homo sapiens; details: Homo sapiens, OS-RC-2
Description: SANGER: Inhibition of human OS-RC-2 cell growth in a cell viability assay.

OVCAR-3 = format: functional, cell-based, Homo sapiens; details: Homo sapiens, OVCAR-3
Description: SANGER: Inhibition of human OVCAR-3 cell growth in a cell viability assay.

PANC-08-13 = format: functional, cell-based, Homo sapiens; details: Homo sapiens, PANC-08-13
Description: SANGER: Inhibition of human PANC-08-13 cell growth in a cell viability assay.

Panc1005 = format: functional, cell-based, Homo sapiens; details: Homo sapiens, Panc1005
Description: SANGER: Inhibition of human PANC-10-05 cell growth in a cell viability assay.

PC-3 = format: functional, cell-based, Homo sapiens; details: Homo sapiens, PC-3
Description: SANGER: Inhibition of human PC-3 cell growth in a cell viability assay.

RD = format: functional, cell-based, Homo sapiens; details: Homo sapiens, RD
Description: SANGER: Inhibition of human RD cell growth in a cell viability assay.

RO82-W-1 = format: functional, cell-based, Homo sapiens; details: Homo sapiens, RO82-W-1
Description: SANGER: Inhibition of human RO82-W-1 cell growth in a cell viability assay.

SF-295 = format: functional, cell-based, Homo sapiens; details: Homo sapiens, SF-295; read-out: IC50
Description: SANGER: Inhibition of human SF295 cell growth in a cell viability assay.

SJSA-1 = format: functional, cell-based, Homo sapiens; details: Homo sapiens, SJSA-1
Description: SANGER: Inhibition of human SJSA-1 cell growth in a cell viability assay.

SK-N-DZ = format: functional, cell-based, Homo sapiens; details: Homo sapiens, SK-N-DZ
Description: SANGER: Inhibition of human SK-N-DZ cell growth in a cell viability assay.

SNB-75 = format: functional, cell-based, Homo sapiens; details: Homo sapiens, SNB-75
Description: SANGER: Inhibition of human SNB75 cell growth in a cell viability assay.

SW837 = format: functional, cell-based, Homo sapiens; details: Homo sapiens, SW837
Description: SANGER: Inhibition of human SW837 cell growth in a cell viability assay.

TE-1 = format: functional, cell-based, Homo sapiens; details: Homo sapiens, TE-1
Description: SANGER: Inhibition of human TE-1 cell growth in a cell viability assay.

BB65-RCC = format: functional, cell-based, Homo sapiens; details: Homo sapiens, BB65-RCC
Description: SANGER: Inhibition of human BB65-RCC cell growth in a cell viability assay.

C2BBe1 = format: functional, cell-based, Homo sapiens; details: Homo sapiens, C2BBe1
Description: SANGER: Inhibition of human C2BBe1 cell growth in a cell viability assay.

C32 = format: functional, cell-based, Homo sapiens; details: Homo sapiens, C32
Description: SANGER: Inhibition of human C32 cell growth in a cell viability assay.

CAL-39 = format: functional, cell-based, Homo sapiens; details: Homo sapiens, CAL-39
Description: SANGER: Inhibition of human CAL-39 cell growth in a cell viability assay.

TE-8 = format: functional, cell-based, Homo sapiens; details: Homo sapiens, TE-8
Description: SANGER: Inhibition of human TE-8 cell growth in a cell viability assay.

U2OS = format: functional, cell-based, Homo sapiens, U-2-OS; details: Homo sapiens, U2OS
Description: SANGER: Inhibition of human U-2-OS cell growth in a cell viability assay.

UACC-62 = format: functional, cell-based, Homo sapiens; details: Homo sapiens, UACC-62
Description: SANGER: Inhibition of human UACC-62 cell growth in a cell viability assay.

COLO-678 = format: functional, cell-based, Homo sapiens; details: Homo sapiens, COLO-678
Description: SANGER: Inhibition of human COLO-678 cell growth in a cell viability assay.

## C=CCc1cccc(/C=N/NC(=O)CN2CCN(Cc3ccccc3)CC2)c1O [PAC-1]
COLO-800
  pIC50: < 5.59
COLO-829
  pIC50: < 5.59
Ca9-22
  pIC50: < 5.59
Capan-2
  pIC50: < 5.59
DJM-1
  pIC50: < 5.59
DU-4475
  pIC50: 5.72
EFM-19
  pIC50: 5.71
ES6
  pIC50: 5.83
GAMG
  pIC50: < 5.59
HCC1419
  pIC50: < 5.59
HCE-T
  pIC50: < 5.59
KURAMOCHI
  pIC50: < 5.59
KYSE-520 cell line
  pIC50: < 5.59
LB2241-RCC
  pIC50: < 5.59
LN-405
  pIC50: < 5.59
LNCaP-Clone-FGC
  pIC50: < 5.59
LS-123
  pIC50: < 5.59
M059J
  pIC50: < 5.59
MDA-MB-157
  pIC50: < 5.59
MIA PaCa-2
  pIC50: < 5.59
MeWo
  pIC50: < 5.59
NCI-H1437
  pIC50: 5.65
NCI-H1793
  pIC50: < 5.59
NCI-H226
  pIC50: < 5.59
NCI-H2452
  pIC50: < 5.59
NCI-H510A
  pIC50: < 5.59
OCUB-M
  pIC50: < 5.59
OE33
  pIC50: < 5.59
OS-RC-2
  pIC50: < 5.59
OVCAR-3
  pIC50: < 5.59
PANC-08-13
  pIC50: < 5.59
Panc1005
  pIC50: < 5.59
PC-3
  pIC50: < 5.59
RD
  pIC50: < 5.59
RO82-W-1
  pIC50: < 5.59
SF-295
  pIC50: < 5.59
SJSA-1
  pIC50: 5.63
SK-N-DZ
  pIC50: < 5.59
SNB-75
  pIC50: < 5.59
SW837
  pIC50: < 5.59
TE-1
  pIC50: < 5.59
BB65-RCC
  pIC50: < 5.59
C2BBe1
  pIC50: < 5.59
C32
  pIC50: < 5.59
CAL-39
  pIC50: < 5.59
TE-8
  pIC50: < 5.59
U2OS
  pIC50: < 5.59
UACC-62
  pIC50: < 5.59
COLO-678
  pIC50: < 5.59

## Cc1ccc(Nc2nccc(N(C)c3ccc4c(C)n(C)nc4c3)n2)cc1S(N)(=O)=O [PAZOPANIB]
COLO-800
  pIC50: < 5.10
COLO-829
  pIC50: < 5.10
Ca9-22
  pIC50: < 5.10
Capan-2
  pIC50: < 5.10
DJM-1
  pIC50: < 5.10
DU-4475
  pIC50: < 5.10
EFM-19
  pIC50: < 5.10
ES6
  pIC50: 5.22
GAMG
  pIC50: 5.21
HCC1419
  pIC50: < 5.10
HCE-T
  pIC50: < 5.10
KURAMOCHI
  pIC50: < 5.10
KYSE-520 cell line
  pIC50: < 5.10
LB2241-RCC
  pIC50: < 5.10
LN-405
  pIC50: < 5.10
LNCaP-Clone-FGC
  pIC50: < 5.10
LS-123
  pIC50: < 5.10
M059J
  pIC50: < 5.10
MDA-MB-157
  pIC50: < 5.10
MIA PaCa-2
  pIC50: 5.25
MeWo
  pIC50: < 5.10
NCI-H1437
  pIC50: < 5.10
NCI-H1793
  pIC50: < 5.10
NCI-H226
  pIC50: < 5.10
NCI-H2452
  pIC50: < 5.10
NCI-H510A
  pIC50: < 5.10
OCUB-M
  pIC50: 5.48
OE33
  pIC50: < 5.10
OS-RC-2
  pIC50: < 5.10
OVCAR-3
  pIC50: < 5.10
PANC-08-13
  pIC50: < 5.10
Panc1005
  pIC50: < 5.10
PC-3
  pIC50: < 5.10
RD
  pIC50: < 5.10
RO82-W-1
  pIC50: < 5.10
SF-295
  pIC50: < 5.10
SJSA-1
  pIC50: < 5.10
SK-N-DZ
  pIC50: 5.69
SNB-75
  pIC50: 5.18
SW837
  pIC50: < 5.10
TE-1
  pIC50: < 5.10
BB65-RCC
  pIC50: < 5.10
C2BBe1
  pIC50: < 5.10
C32
  pIC50: < 5.10
CAL-39
  pIC50: < 5.10
TE-8
  pIC50: 5.21
U2OS
  pIC50: < 5.10
UACC-62
  pIC50: < 5.10
COLO-678
  pIC50: < 5.10

## CN(c1ncccc1CNc1nc(Nc2ccc3c(c2)CC(=O)N3)ncc1C(F)(F)F)S(C)(=O)=O [PF-00562271]
COLO-800
  pIC50: < 5.59
COLO-829
  pIC50: 6.12
Ca9-22
  pIC50: < 5.59
Capan-2
  pIC50: < 5.59
DJM-1
  pIC50: < 5.59
DU-4475
  pIC50: 5.67
EFM-19
  pIC50: < 5.59
ES6
  pIC50: < 5.59
GAMG
  pIC50: < 5.59
HCC1419
  pIC50: < 5.59
HCE-T
  pIC50: < 5.59
KURAMOCHI
  pIC50: < 5.59
KYSE-520 cell line
  pIC50: < 5.59
LB2241-RCC
  pIC50: < 5.59
LN-405
  pIC50: < 5.59
LNCaP-Clone-FGC
  pIC50: < 5.59
LS-123
  pIC50: < 5.59
M059J
  pIC50: < 5.59
MDA-MB-157
  pIC50: < 5.59
MIA PaCa-2
  pIC50: < 5.59
MeWo
  pIC50: < 5.59
NCI-H1437
  pIC50: < 5.59
NCI-H1793
  pIC50: < 5.59
NCI-H226
  pIC50: < 5.59
NCI-H2452
  pIC50: < 5.59
NCI-H510A
  pIC50: < 5.59
OCUB-M
  pIC50: < 5.59
OE33
  pIC50: < 5.59
OS-RC-2
  pIC50: < 5.59
OVCAR-3
  pIC50: < 5.59
PANC-08-13
  pIC50: < 5.59
Panc1005
  pIC50: < 5.59
PC-3
  pIC50: < 5.59
RD
  pIC50: < 5.59
RO82-W-1
  pIC50: < 5.59
SF-295
  pIC50: < 5.59
SJSA-1
  pIC50: < 5.59
SK-N-DZ
  pIC50: < 5.59
SNB-75
  pIC50: < 5.59
SW837
  pIC50: < 5.59
TE-1
  pIC50: < 5.59
BB65-RCC
  pIC50: < 5.59
C2BBe1
  pIC50: < 5.59
C32
  pIC50: < 5.59
CAL-39
  pIC50: 5.62
TE-8
  pIC50: < 5.59
U2OS
  pIC50: < 5.59
UACC-62
  pIC50: < 5.59
COLO-678
  pIC50: < 5.59

## Cn1cncc1[C@@](N)(c1ccc(Cl)cc1)c1ccc2c(c1)c(-c1cccc(Cl)c1)cc(=O)n2C [TIPIFARNIB]
COLO-800
  pIC50: < 4.80
COLO-829
  pIC50: 4.90
Ca9-22
  pIC50: 5.53
Capan-2
  pIC50: 4.97
DJM-1
  pIC50: < 4.80
DU-4475
  pIC50: 5.66
EFM-19
  pIC50: 5.76
ES6
  pIC50: 6.27
GAMG
  pIC50: 5.05
HCC1419
  pIC50: 5.33
HCE-T
  pIC50: 5.10
KURAMOCHI
  pIC50: 5.32
KYSE-520 cell line
  pIC50: < 4.80
LB2241-RCC
  pIC50: 5.21
LN-405
  pIC50: < 4.80
LNCaP-Clone-FGC
  pIC50: 4.94
LS-123
  pIC50: 5.68
M059J
  pIC50: < 4.80
MDA-MB-157
  pIC50: 4.83
MIA PaCa-2
  pIC50: 6.49
MeWo
  pIC50: 5.69
NCI-H1437
  pIC50: 5.09
NCI-H1793
  pIC50: < 4.80
NCI-H226
  pIC50: < 4.80
NCI-H2452
  pIC50: < 4.80
NCI-H510A
  pIC50: < 4.80
OCUB-M
  pIC50: 6.33
OE33
  pIC50: 4.90
OS-RC-2
  pIC50: 4.82
OVCAR-3
  pIC50: < 4.80
PANC-08-13
  pIC50: < 4.80
Panc1005
  pIC50: 5.30
PC-3
  pIC50: 4.95
RD
  pIC50: 4.92
RO82-W-1
  pIC50: < 4.80
SF-295
  pIC50: 5.66
SJSA-1
  pIC50: < 4.80
SK-N-DZ
  pIC50: 5.33
SNB-75
  pIC50: 5.04
SW837
  pIC50: 5.00
TE-1
  pIC50: 5.58
BB65-RCC
  pIC50: 5.58
C2BBe1
  pIC50: < 4.80
C32
  pIC50: < 4.80
CAL-39
  pIC50: 6.02
TE-8
  pIC50: 6.03
U2OS
  pIC50: < 4.80
UACC-62
  pIC50: < 4.80
COLO-678
  pIC50: < 4.80
